According to BigSolDB 2.1:

CCc1ccc(C(=O)c2ccccc2C(=O)O)cc1
Details | solubility (mole fraction)
in 1,4-dioxane, 288.88 K | 0.0042
in 1,4-dioxane, 293.97 K | 0.0066
in 1,4-dioxane, 298.46 K | 0.0091
in 1,4-dioxane, 303.53 K | 0.0121
in 1,4-dioxane, 308.09 K | 0.0153
in 1,4-dioxane, 313.4 K | 0.0195
in 1,4-dioxane, 319.15 K | 0.024
in 1,4-dioxane, 322.54 K | 0.0278
in 1,4-dioxane, 333.97 K | 0.0353
in DMF, 281.2 K | 0.343
in DMF, 286.49 K | 0.367
in DMF, 290.63 K | 0.382
in DMF, 296.42 K | 0.42
in DMF, 305.65 K | 0.451
in DMF, 314.34 K | 0.47
in DMF, 325.55 K | 0.507
in DMF, 335.75 K | 0.532
in NMP, 280.1 K | 0.163
in NMP, 284.15 K | 0.175
in NMP, 293.44 K | 0.209
in NMP, 303.76 K | 0.26
in NMP, 313.15 K | 0.315
in NMP, 322.85 K | 0.396
in NMP, 334.3 K | 0.484
in THF, 281.2 K | 0.0064
in THF, 286.49 K | 0.0085
in THF, 296.42 K | 0.0125
in THF, 305.65 K | 0.0178
in THF, 314.34 K | 0.0246
in THF, 325.55 K | 0.0377
in THF, 330.34 K | 0.0442
in THF, 335.75 K | 0.0541
in acetone, 280.25 K | 0.0015
in acetone, 284.85 K | 0.0022
in acetone, 290.87 K | 0.0032
in acetone, 299.83 K | 0.0054
in acetone, 310.39 K | 0.0087
in acetone, 314.89 K | 0.0107
in acetone, 319.6 K | 0.0132
in acetone, 324.16 K | 0.0156
in benzene, 283.05 K | 0.0023
in benzene, 288.68 K | 0.0037
in benzene, 293.52 K | 0.0052
in benzene, 302.78 K | 0.0109
in benzene, 313.15 K | 0.0228
in benzene, 322.65 K | 0.0408
in benzene, 328.38 K | 0.0598
in benzene, 332.7 K | 0.0793
in ethanol, 282.29 K | 0.0733
in ethanol, 289.68 K | 0.1
in ethanol, 294.91 K | 0.123
in ethanol, 304.6 K | 0.164
in ethanol, 314.3 K | 0.214
in ethanol, 322.91 K | 0.256
in ethanol, 328.65 K | 0.289
in ethanol, 338.19 K | 0.354
in ethanol, 342.82 K | 0.388
in ethyl formate, 280.6 K | 0.0014
in ethyl formate, 289.68 K | 0.0027
in ethyl formate, 294.91 K | 0.0038
in ethyl formate, 299.65 K | 0.005
in ethyl formate, 304.6 K | 0.006
in ethyl formate, 309.59 K | 0.0075
in ethyl formate, 314.3 K | 0.0087
in ethyl formate, 318.67 K | 0.01
in ethyl formate, 322.91 K | 0.0113
in isopropanol, 279.79 K | 0.0023
in isopropanol, 284.74 K | 0.0037
in isopropanol, 294.05 K | 0.0085
in isopropanol, 303.99 K | 0.0174
in isopropanol, 313.25 K | 0.0305
in isopropanol, 323.37 K | 0.0464
in isopropanol, 334.05 K | 0.0631
in methanol, 279.9 K | 0.0627
in methanol, 285.6 K | 0.0827
in methanol, 290.81 K | 0.101
in methanol, 295.45 K | 0.118
in methanol, 305.56 K | 0.164
in methanol, 314.4 K | 0.202
in methanol, 323.8 K | 0.248
in methanol, 328.69 K | 0.273
in methanol, 333.53 K | 0.3
in n-propanol, 279.55 K | 0.0499
in n-propanol, 288.67 K | 0.0777
in n-propanol, 299.23 K | 0.121
in n-propanol, 308.86 K | 0.168
in n-propanol, 318.93 K | 0.223
in n-propanol, 328.62 K | 0.279
in n-propanol, 338.45 K | 0.344
in n-propanol, 343.15 K | 0.387
